According to patent US6630469B2, “5-HT7 receptor antagonists” (Bristol-Myers Squibb Company, priority 2000, dated 2003):
Where a name gives a salt, the structure may show the parent alone.

How the values were obtained:
[1] = test system: rat pup isolation-induced ultrasonic vocalization; experiment: rat pup isolation-induced ultrasonic vocalization test; assay type: in vivo
Text: The compounds of this invention are useful as antagonists or partial agonists for the treatment of CNS and ocular disorders. […] A compound of this invention has also been assessed in an in vivo model, the rat pup isolation-induced ultrasonic vocalization test. This animal model has proven to be a sensitive and reliable method for detecting anxiolytics and antidepressants across a broad spectrum of pharmacological classes such as benzodiazepines, serotonin reuptake inhibitors, serotonin agonists and NMDA antagonists (Gardner, C.; Drug Devel. Res. 1985, 5,185-193 and Winslow, J.; Insel, T.; Psychopharmacology 1991, 105, 513-520).

[2] = target: T1, human 5-HT7 receptor (Homo sapiens, UniProt P34969); experiment: 5-HT7 Receptor Binding Assay; settings: membranes of CHO cells expressing human 5-HT7 receptor; 1 nM 3H-5-carboxamidotryptamine; 25° C., 60 minutes
T1 construct: expressed in transfected cells; host or cells: CHO cells
T1 sequence (P34969 whole entry): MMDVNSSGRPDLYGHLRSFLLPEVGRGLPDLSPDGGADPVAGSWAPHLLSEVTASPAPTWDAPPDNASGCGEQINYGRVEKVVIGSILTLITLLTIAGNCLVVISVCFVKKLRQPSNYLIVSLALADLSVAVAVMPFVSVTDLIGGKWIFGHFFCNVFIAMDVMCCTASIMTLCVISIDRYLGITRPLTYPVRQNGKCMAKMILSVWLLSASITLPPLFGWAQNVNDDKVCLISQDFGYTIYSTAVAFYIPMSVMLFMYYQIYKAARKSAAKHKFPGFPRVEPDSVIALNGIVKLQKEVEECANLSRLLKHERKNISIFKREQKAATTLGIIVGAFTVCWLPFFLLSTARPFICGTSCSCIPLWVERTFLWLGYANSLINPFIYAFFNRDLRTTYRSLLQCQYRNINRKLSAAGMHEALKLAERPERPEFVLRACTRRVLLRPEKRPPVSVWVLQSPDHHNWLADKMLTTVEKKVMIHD
Summary of the method: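 Competition against 1 nM ^3H-5-carboxamidotryptamine over 0.1–1000 nM compound, 60 min, 25° C, 50 mM HEPES, 30 ug membrane protein from CHO cells expressing the human receptor. 10 uM serotonin defined non-specific binding. Bound label counted after filtration; IC50 from non-linear regression.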

Compound	IC50 [2] [nM]	further results
C[C@H](Nc1nc(N)nc(NCCOc2ccccc2)n1)c1ccccc1 (as salt: TFA) [Compound 41, N^2-[2-(Phenoxy)ethyl]-N^4-[(1S)-1-phenylethyl]-1,3,5-triazine-2,4,6-triamine]	–	melting point: 207 to 208 °C
C[C@H](Nc1nc(N)nc(NCCc2ccccn2)n1)c1ccc(F)cc1 (as salt: TFA) [Example 18, N^2-[(1S)-1-(4-Fluorophenyl)ethyl]-N^4-[2-(2-pyridinyl)ethyl]-1,3,5-triazine-2,4,6-triamine]	–	melting point: 161 °C
Cc1ccc([C@H](C)Nc2nc(N)nc(NCCOc3ccccc3)n2)cc1 [N^2-[(1S)-1-(4-Methylphenyl)ethyl]-N^4-(2-phenoxyethyl)-1,3,5-triazine-2,4,6-triamine]	–	amount of compound dosed which reduced the rat pup ultrasonic vocalization by 50% (ID50) [1]: 23.8 mg/kg; locomotor activity at doses suppressing ultrasonic vocalization [1]: did not suppress locomotor activity; supression of rat pup ultrasonic vocalization [1]: dose dependent and significant supression of rat pup ultrasonic vocalization
CC(Nc1ccnc(NCCCc2ccccc2)n1)c1ccccc1 (centres unmarked) [N^4-(1-Phenylethyl)-N^2-(3-phenylpropyl)pyrimidine-2,4-diamine]	51 to 100	–
CC(Nc1ccnc(NCCc2cccc(C(F)(F)F)c2)n1)c1ccccc1 (centres unmarked) [N^4-(1-Phenylethyl)-N^2-{2-[3-(trifluoromethyl)phenyl]ethyl}pyrimidine-2,4-diamine]	51 to 100	–
Clc1ccc(CNc2ccnc(NCCc3ccccc3)n2)c(Cl)c1 [N^4-(2,4-Dichlorophenylmethyl)-N^2-(2-phenylethyl)pyrimidine-2,4-diamine]	51 to 100	–
Clc1ccccc1CNc1ccnc(NCCc2ccccc2)n1 [N^4-(2-Chlorophenylmethyl)-N^2-(2-phenylethyl)pyrimidine-2,4-diamine]	≤ 50	–
COc1ccccc1CNc1ccnc(NCCc2ccccc2)n1 [N^4-(2-Methoxyphenylmethyl)-N^2-(2-phenylethyl)pyrimidine-2,4-diamine]	≤ 50	–
Clc1ccc(CNc2ccnc(NCCOc3ccccc3)n2)cc1Cl [N^4-(3,4-Dichlorophenylmethyl)-N^2-(2-phenoxyethyl)pyrimidine-2,4-diamine]	101 to 200	–
Clc1ccc(CNc2ccnc(NCCc3ccccc3)n2)cc1Cl [N^4-(3,4-Dichlorophenylmethyl)-N^2-(2-phenylethyl)pyrimidine-2,4-diamine]	101 to 200	–
Fc1ccc(CNc2ccnc(NCCOc3ccccc3)n2)cc1F [N^4-(3,4-Difluorophenylmethyl)-N^2-(2-phenoxyethyl)pyrimidine-2,4-diamine]	≤ 50	–
Fc1ccc(CNc2ccnc(NCCc3ccccc3)n2)cc1F [N^4-(3,4-Difluorophenylmethyl)-N^2-(2-phenylethyl)pyrimidine-2,4-diamine]	≤ 50	–
Fc1cc(F)cc(CNc2ccnc(NCCOc3ccccc3)n2)c1 [N^4-(3,5-Difluorophenylmethyl)-N^2-(2-phenoxyethyl)pyrimidine-2,4-diamine]	101 to 200	–
COc1cc(CNc2ccnc(NCCOc3ccccc3)n2)cc(OC)c1 [N^4-(3,5-Dimethoxyphenylmethyl)-N^2-(2-phenoxyethyl)pyrimidine-2,4-diamine]	101 to 200	–
Fc1ccc(CNc2ccnc(NCCOc3ccccc3)n2)cc1Cl [N^4-(3-Chloro-4-fluorophenylmethyl)-N^2-(2-phenoxyethyl)pyrimidine-2,4-diamine]	≤ 50	–
Fc1ccc(CNc2ccnc(NCCc3ccccc3)n2)cc1Cl [N^4-(3-Chloro-4-fluorophenylmethyl)-N^2-(2-phenylethyl)pyrimidine-2,4-diamine]	≤ 50	–
Cc1ccc(CNc2ccnc(NCCOc3ccccc3)n2)cc1Cl [N^4-(3-Chloro-4-methylphenylmethyl)-N^2-(2-phenoxyethyl)pyrimidine-2,4-diamine]	≤ 50	–
Cc1ccc(CNc2ccnc(NCCc3ccccc3)n2)cc1Cl [N^4-(3-Chloro-4-methylphenylmethyl)-N^2-(2-phenylethyl)pyrimidine-2,4-diamine]	101 to 200	–
Clc1cccc(CNc2ccnc(NCCOc3ccccc3)n2)c1 [N^4-(3-Chlorophenylmethyl)-N^2-(2-phenoxyethyl)pyrimidine-2,4-diamine]	≤ 50	–
Clc1cccc(CNc2ccnc(NCCc3ccccc3)n2)c1 [N^4-(3-Chlorophenylmethyl)-N^2-(2-phenylethyl)pyrimidine-2,4-diamine]	101 to 200	–
Fc1cccc(CNc2ccnc(NCCOc3ccccc3)n2)c1 [N^4-(3-Fluorophenylmethyl)-N^2-(2-phenoxyethyl)pyrimidine-2,4-diamine]	51 to 100	–
Fc1cccc(CNc2ccnc(NCCc3ccccc3)n2)c1 [N^4-(3-Fluorophenylmethyl)-N^2-(2-phenylethyl)pyrimidine-2,4-diamine]	≤ 50	–
COc1cccc(CNc2ccnc(NCCc3ccccc3)n2)c1 [N^4-(3-Methoxyphenylmethyl)-N^2-(2-phenylethyl)pyrimidine-2,4-diamine]	≤ 50	–

Compound	IC50 [2] [nM]	further results
Cc1cccc(CNc2ccnc(NCCOc3ccccc3)n2)c1 [N^4-(3-Methylphenylmethyl)-N^2-(2-phenoxyethyl)pyrimidine-2,4-diamine]	≤ 50	–
Cc1cccc(CNc2ccnc(NCCc3ccccc3)n2)c1 [N^4-(3-Methylphenylmethyl)-N^2-(2-phenylethyl)pyrimidine-2,4-diamine]	≤ 50	–
c1ccc(OCCNc2nccc(NCc3cccc4c3OCO4)n2)cc1 [N^4-(4-Benzodioxolylmethyl)-N^2-(2-phenoxyethyl)pyrimidine-2,4-diamine]	≤ 50	–
c1ccc(CCNc2nccc(NCc3cccc4c3OCO4)n2)cc1 [N^4-(4-Benzodioxolylmethyl)-N^2-(2-phenylethyl)pyrimidine-2,4-diamine]	≤ 50	–
Clc1ccc(CNc2ccnc(NCCOc3ccccc3)n2)cc1 [N^4-(4-Chlorophenylmethyl)-N^2-(2-phenoxyethyl)pyrimidine-2,4-diamine]	≤ 50	–
Clc1ccc(CNc2ccnc(NCCc3ccccc3)n2)cc1 [N^4-(4-Chlorophenylmethyl)-N^2-(2-phenylethyl)pyrimidine-2,4-diamine]	≤ 50	–
COc1ccc(CNc2ccnc(NCCc3ccccc3)n2)cc1 [N^4-(4-Methoxyphenylmethyl)-N^2-(2-phenylethyl)pyrimidine-2,4-diamine]	≤ 50	–
CC(Nc1ccnc(NCCOc2ccccc2)n1)c1ccc(Cl)cc1 (centres unmarked) [N^4-[1-(4-Chlorophenyl)ethyl]-N^2-(2-phenoxyethyl)pyrimidine-2,4-diamine]	≤ 50	–
CC(Nc1ccnc(NCCc2ccccc2)n1)c1ccc(Cl)cc1 (centres unmarked) [N^4-[1-(4-Chlorophenyl)ethyl]-N^2-(2-phenylethyl)pyrimidine-2,4-diamine]	≤ 50	–
CC(Nc1ccnc(NCCc2ccccc2)n1)c1ccc(F)cc1 (centres unmarked) [N^4-[1-(4-Fluorophenyl)ethyl]-N^2-(2-phenylethyl)pyrimidine-2,4-diamine]	≤ 50	–
C[C@H](Nc1cc(NCCc2ccc(N)cc2)ncn1)c1ccccc1 [N^4-[2-(4-Aminophenyl)ethyl]-N^6-[(1S)-1-phenylethyl]pyrimidine-4,6-diamine]	101 to 200	–
C[C@H](Nc1cc(NCCc2ccc(Br)cc2)ncn1)c1ccccc1 [N^4-[2-(4-Bromoophenyl)ethyl]-N^6-[(1S)-1-phenylethyl]pyrimidine-4,6-diamine]	101 to 200	–
CC(Nc1nccc(NCCOc2ccc(F)cc2)n1)c1ccccc1 (centres unmarked) [N^4-[2-(4-Fluorophenoxy)ethyl]-N^2-(1-phenylethyl)pyrimidine-2,4-diamine]	≤ 50	–
C[C@H](Nc1cc(NCCc2ccc(O)cc2)ncn1)c1ccccc1 [N^4-[2-(4-Hydroxyphenyl)ethyl]-N^6-[(1S)-1-phenylethyl]pyrimidine-4,6-diamine]	≤ 50	–
Fc1ccc(C(F)(F)F)cc1CNc1ccnc(NCCOc2ccccc2)n1 [N^4-[2-Fluoro-5-(trifluoromethyl)phenylmethyl]-N^2-(2-phenoxyethyl)pyrimidine-2,4-diamine]	≤ 50	–
Fc1cc(CNc2ccnc(NCCOc3ccccc3)n2)cc(C(F)(F)F)c1 [N^4-[3-Fluoro-5-(trifluoromethyl)phenylmethyl]-N^2-(2-phenoxyethyl)pyrimidine-2,4-diamine]	101 to 200	–
CC(C)c1ccc(CNc2ccnc(NCCOc3ccccc3)n2)cc1 [N^4-[4-(1-Methylethyl)phenylmethyl]-N^2-(2-phenoxyethyl)pyrimidine-2,4-diamine]	≤ 50	–
Fc1ccc(CNc2ccnc(NCCOc3ccccc3)n2)cc1C(F)(F)F [N^4-[4-Fluoro-3-(trifluoromethyl)phenylmethyl]-N^2-(2-phenoxyethyl)pyrimidine-2,4-diamine]	51 to 100	–
Fc1ccc(CNc2ccnc(NCCc3ccccc3)n2)cc1C(F)(F)F [N^4-[4-Fluoro-3-(trifluoromethyl)phenylmethyl]-N^2-(2-phenylethyl)pyrimidine-2,4-diamine]	101 to 200	–
Cc1ccc([C@@H](C)Nc2ccnc(NCCOc3ccccc3)n2)cc1 [N^4-[(1R)-1-(4-Methylphenyl)ethyl]-N^2-(2-phenoxyethyl)pyrimidine-2,4-diamine]	51 to 100	–
Cc1ccc([C@H](C)Nc2ccnc(NCCOc3ccccc3)n2)cc1 [N^4-[(1S)-1-(4-Methylphenyl)ethyl]-N^2-(2-phenoxyethyl)pyrimidine-2,4-diamine]	≤ 50	–
C[C@H](Nc1ccnc(NCCc2ccccc2)n1)c1ccccc1 [N^4-[(1S)-1-Phenylethyl]-N^2-(2-phenylethyl)pyrimidine-2,4-diamine]	≤ 50	–
